Measurements as given in patent publication US20110065675A1, “AZO DYE RELATED SMALL MOLECULE MODULATORS OF PROTEIN-PROTEIN INTERACTIONS” (University of Miami, priority 2008, published 2011).
Where two headings read alike, the source gives them in different places.

Legend:
human CD40/CD154 = target: T1, human CD40/CD154 (Homo sapiens, UniProt P29965); test: Human CD40/CD154 binding inhibition assay (cell-free, plate-based); details: for Human CD40/CD154 IC50 / IC50: cell-free binding; for Human CD40/CD154 log IC50: log of IC50, cell-free binding
T1 construct: CD154 (soluble human, FLAG-tagged, recombinant from Alexis Biochemicals; MW=18 kDa); purchased Alexis Biochemicals
T1 sequence (P29965 113-261 limits assumed): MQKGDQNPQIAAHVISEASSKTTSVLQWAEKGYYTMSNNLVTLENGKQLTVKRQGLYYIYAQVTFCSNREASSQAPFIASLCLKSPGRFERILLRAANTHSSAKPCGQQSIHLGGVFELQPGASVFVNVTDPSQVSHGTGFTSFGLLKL
Method: A 96-well plate-based cell-free in vitro binding inhibition assay, which is a modification of an assay described in U.S. Pat. No. 7,173,046, incorporated by reference in its entirety, has been developed and used for activity screening. Briefly, CD40 is coated at a preselected concentration, and binding of (FLAG-tagged) CD154 is measured by reacting with secondary antibody and using TMB liquid substrate system as a substrate for horseradish peroxidase for reading at 450 nm. The detailed procedure is as follows: Microtiter plates (Nunc F MaxiSorp) were coated with […] of CD40: Fc (human:Fc human, recombinant from Alexis Biochemicals; MW=54 kDa) diluted in PBS pH 7.2 at a preselected concentration of 0.3125 μg/mL. Plates were covered with plate sealer and stored overnight at 4° C. The liquid was removed from the plates and blotted dry. Plates were blocked by washing once with approx. 300 μL/well of Blocking Solution (PBS pH 7.2, 0.05% Tween-20, 1% BSA) and incubated with the same solution for 1 hour at room temperature (RT) or at 4° C. overnight. Coated plates were washed three times with Washing Solution (PBS pH 7.4, 0.05% Tween-20) and blotted dry. A preselected dilution of CD154 (soluble human, FLAG-tagged, recombinant from Alexis Biochemicals; MW=18 kDa) of 0.0087500875 μg/mL range was prepared in 100 mM HEPES, 0.005% BSA pH 7.2. Binding was carried out by adding 100 μL of this CD154 dilution/well and incubating at RT in the presence of test compounds (or blank as negative control). After incubation, the plates were washed with Washing Solution and blotted dry. Bound CD154 was detected with 200 μL/well of secondary antibody mAb ANTI-FLAG M2—Peroxidase Conjugate (anti-FLAG M2-peroxidase HRP conjugate; Sigma-Aldrich) diluted 1:40,000 in Washing Solution. After incubation, the plates were washed and blotted dry. 200 μL/well of the HR-Peroxidase substrate TMB (3,3′,5,5′-tetramethylbenzidine; Sigma-Aldrich) were added, and the plates were incubated for approximately 30 minutes in the dark. The reaction was stopped with 0.5 M H2SO4 and read at 450 nm. All conditions were tested in at least three independent experiments in duplicate or triplicate per plates. Data were normalized and fitted with standard log inhibitor vs. response models using GraphPad Prism 5 to establish median inhibitory ICso values.
A representative result using the monoclonal anti-human CD154 antibody (R&D Systems, monoclonal anti-human CD40 ligand/TNFSF5 antibody, MAB617; MW≈150 kDa used) as positive control is shown in FIG. 1.
Binding inhibition assays with this system provided consistent and well-reproducible results, as FIG. 1 (bottom), focusing on the concentration range of their activities, illustrates. […] The effect of DMSO, which was used as the diluting solvent for the non-water-soluble compounds and is a standard solvent in HTS assays, on the integrity of the assay has been examined. DMSO concentrations above 10% interfere with the binding assay, but concentrations below 3% have no effect. […] Because 5 or 10 mM stock solutions were used, all IC50 values below 250 μM can be considered as unaffected by DMSO.

[1] = target: T2, mouse CD40/CD154 (mCD40:mCD154) (Mus musculus, UniProt P27548); test: Murine CD40/CD154 binding inhibition assay
T2 construct: (FLAG-tagged) mCD154 (recombinant mouse CD40L, soluble, Alexis Biochemicals); purchased R&D Systems (mCD40/Fc); Alexis Biochemicals (mCD154)
T2 sequence (P27548 112-260 limits assumed): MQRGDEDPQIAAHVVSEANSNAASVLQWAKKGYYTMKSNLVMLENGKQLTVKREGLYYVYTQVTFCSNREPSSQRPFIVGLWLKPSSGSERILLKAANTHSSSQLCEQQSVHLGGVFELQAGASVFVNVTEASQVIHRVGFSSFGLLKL
Method: Compounds of interest were also tested in a murine (mouse) model similar to the human one with murine CD40 and CD154 replacing the corresponding human proteins. This serves as additional confirmation of the in vitro inhibitory potential of these compounds, and it was considered important because mouse models are likely to be used as the first in vivo tests. […] The experimental setup used was similar to the one described above, but using mCD40 (recombinant mouse CD40/TNFRSF5/Fc Chimera, soluble, R&D Systems) and (FLAG-tagged) mCD154 (recombinant mouse CD40L, soluble, Alexis Biochemicals). This time, however, a higher concentration of CD154 ligand had to be employed to obtain adequate signals, and after a number of calibration tests, mCD40 coating at 0.3125 μg/mL with mCD154 (mCD40L) at 1.1212 μg/mL range was selected to be used to screen the inhibiting activity of various compounds.
The experiments confirmed that the murine anti-CD154 monoclonal antibody (Taconic, MR1) was active in this system at the expected concentration (˜1 nM range), the human antibody was not, and vice versa, the human mAb was active in the human system, but not in the mouse system. The mouse system provided a similar range of activity with some (up to approximately five-fold) changes in activities compared to that seen in the human system (FIG. 2) (Table 1).

human TNF-R1/TNFα [2] = target: human TNF-R1/TNFα (Homo sapiens, UniProt P01375+P19438); test: Specificity test: human TNF-R1/TNFα binding inhibition assay; details: for IC50: cell-free binding, read-out: Human TNFR1/TNFα IC50; for Human TNFR1/TNFα log IC50: log of IC50, cell-free binding
Text: (§1) A main concern for the therapeutic applicability of these compounds and of small molecule PPI inhibitors in general is related to their ability to achieve some acceptable degree of selectivity/specificity for the PPI of interest. To identify compounds that show acceptable specificity for the CD40/CD154 system, their ability to inhibit the TNF-R1/TNF-α PPI was investigated since this is particularly relevant as CD154 is part of the TNF superfamily. The experimental setup used was very similar to the one described in Example 1, but using plate-coated TNF-R1 and TNF-α as ligand (with a corresponding anti-TNF-α mAb as positive control). The concentration of TNF-R1 and TNF-α used were 0.6 μg/mL and 0.02 μg/mL, respectively.

human TNF-R1/TNFα [3] = test: as above
Text: as §1

CD40 = target: T3, CD40 (Homo sapiens, UniProt P25942); test: Identification of binding partner: binding to CD40 (pre-incubation, wash-out); details: compound incubated 1 h with CD40, washed, then CD154 added
T3 construct: purchased Alexis Biochemicals
Text: It is also of interest to identify whether the compounds bind to the receptor CD40 or its ligand CD154 (CD40L). The main goal is to block the CD40/CD154 costimulatory interaction to achieve altered immune response and long-term tolerance; however, it seems more desirable to achieve this by targeting CD154, which is expressed mainly on activated T cells, since this way a more specific immune suppression could be achieved then by targeting CD40. To evaluate the binding partner of the test compounds, CD40 or CD154 were incubated for one hour with increasing concentrations of the test compounds, and after a wash, their ability to still bind their corresponding protein binding partner (CD154 or CD40, respectively) was assessed using a setup similar to that described before (Example 1).
To test if compounds bind specifically to CD40, the procedure of Example 1 was followed with a modification. After blocking the plates with blocking solution and washing, 100 μL of different dilutions of the compounds were added to the wells and incubated at room temperature (RT) for 1 h to allow binding with CD40 in the absence of its CD154 ligand. The plates were then washed three times with washing solution. CD154 was then added and the amount bound was assessed as before.

[4] = read-out: Human CD40/CD154 IC50
[5] = cell-free binding, read-out: Mouse CD40/CD154 IC50

Chain of human TNF-R1/TNFα (Homo sapiens, UniProt P01375+P19438) (P01375 77-233 limits assumed): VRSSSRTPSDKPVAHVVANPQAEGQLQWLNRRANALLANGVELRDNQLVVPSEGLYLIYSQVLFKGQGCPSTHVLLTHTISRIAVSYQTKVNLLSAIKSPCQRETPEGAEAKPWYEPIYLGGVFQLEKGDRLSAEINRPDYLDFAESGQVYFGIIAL
Chain of human TNF-R1/TNFα (Homo sapiens, UniProt P01375+P19438) (P19438 30-211 limits assumed): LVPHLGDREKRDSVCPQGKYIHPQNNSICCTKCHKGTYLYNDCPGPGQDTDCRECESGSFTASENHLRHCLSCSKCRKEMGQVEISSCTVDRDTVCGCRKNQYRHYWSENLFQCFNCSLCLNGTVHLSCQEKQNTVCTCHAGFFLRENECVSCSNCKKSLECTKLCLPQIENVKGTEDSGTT
T3 sequence (P25942 21-193 limits assumed): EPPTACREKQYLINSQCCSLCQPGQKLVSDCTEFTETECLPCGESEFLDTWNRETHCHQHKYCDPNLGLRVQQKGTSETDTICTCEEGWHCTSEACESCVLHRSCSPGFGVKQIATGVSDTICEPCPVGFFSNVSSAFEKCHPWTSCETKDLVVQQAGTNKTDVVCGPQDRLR

Compound	Human CD40/CD154 IC50 (human CD40/CD154) [µg/mL]	IC50 (human CD40/CD154; [4]) [µM]	Human CD40/CD154 log IC50 (human CD40/CD154)	IC50 [1, 5] [µM]	Mouse CD40/CD154 log IC50 ([1]; log of IC50, cell-free binding)	IC50 (human TNF-R1/TNFα [2]) [µM]	Human TNFR1/TNFα log IC50 (human TNF-R1/TNFα [2])	Specificity (human TNF-R1/TNFα [3])	Inhibitory activity for all interactions tested (human TNF-R1/TNFα [3]; all interactions tested (CD40/CD154, TNF-R1/TNF-α)) [µM]	Binding to CD40 (CD40)	IC50 (human CD40/CD154; read-out: Human CD40/CD154 IC50 (ug/mL) (converted)) [µM]	IC50 ([1]; log of IC50, cell-free binding, read-out: Mouse CD40/CD154 log IC50 (converted)) [µM]
Cc1cc(S(=O)(=O)[O-])ccc1N=Nc1ccc(N=Nc2c(O)ccc3cccc(S(=O)(=O)[O-])c23)c(C)c1.[Na+].[Na+] [Crocein scarlet 7B, crocein scarlet 7B]	3.6	5.5	−5.26	13.7	−4.86	168	−3.77	–	–	–	–	–
Nc1ccc2cc(S(=O)(=O)[O-])cc(O)c2c1N=Nc1ccc(NC(=O)Nc2ccc(N=Nc3c(N)ccc4cc(S(=O)(=O)[O-])cc(O)c34)c(S(=O)(=O)[O-])c2)cc1S(=O)(=O)[O-].[Na+].[Na+].[Na+].[Na+] [Direct red 75 (chlorazol fast pink), direct red 75]	4.9	4.8	−5.32	7.4	−5.13	322	−3.49	–	–	–	–	–
O=C(Nc1ccc2c(O)c(N=Nc3ccc(N=Nc4ccc(S(=O)(=O)[O-])cc4)cc3S(=O)(=O)[O-])c(S(=O)(=O)[O-])cc2c1)Nc1ccc2c(O)c(N=Nc3ccc(N=Nc4ccc(S(=O)(=O)[O-])cc4)cc3S(=O)(=O)[O-])c(S(=O)(=O)[O-])cc2c1.[Na+].[Na+].[Na+].[Na+].[Na+].[Na+] [Direct red 80, direct red 80]	1.9	1.8	−5.73	5.9	−5.23	1430	−2.85	–	–	–	–	–
O=C(Nc1ccc2c(O)c(N=Nc3ccc(N=Nc4ccc(S(=O)(=O)[O-])cc4)cc3)c(S(=O)(=O)[O-])cc2c1)c1ccccc1.[Na+].[Na+] [Direct red 81, direct red 81]	6.9	13.6	−4.87	33.8	−4.47	> 1000	>−3.0	–	–	–	–	–
O.O=C([O-])c1ccccc1-c1c2cc(I)c(=O)c(I)c-2oc2c(I)c([O-])c(I)cc12.[Na+].[Na+] [Erythrosin B (FD&C red 3), Erythrosin B, reference compound]	2.0	1.9	−5.72	5.9	−5.23	9	−5.04	nonspecific promiscuous inhibitor	~10	ubiquitous binder	–	–
O=C(Nc1ccc(C(=O)Nc2ccc(C(=O)Nc3ccc(S(=O)(=O)O)c4cc(S(=O)(=O)O)cc(S(=O)(=O)O)c34)cc2)cc1)Nc1ccc(C(=O)Nc2ccc(C(=O)Nc3ccc(S(=O)(=O)O)c4cc(S(=O)(=O)O)cc(S(=O)(=O)O)c34)cc2)cc1 [NF279]	–	4.7	–	2.3	–	438	–	–	–	–	5.2	2.24
direct fast red B	5.7	14	−4.86	16.7	−4.78	2160	−2.67	–	–	–	–	–
direct red 13	3.5	5.5	−5.26	12.7	−4.90	214	−3.67	–	–	–	–	–
